Assays:
[1] = Solubility in a water medium (general statement); format: physicochemical
[2] = Solubility of Fe(III)BBNH in Pluronic P85 formulations; format: physicochemical
Experimental: Various amounts of Fe(III)BBNH were dissolved in 200 μl dimethyl formamide and aliquots (20 μl each) were mixed with the equal volumes of Pluronic P85 solutions of various concentrations in methanol. The water solution of sodium acetate (10 μl) was added to each sample to the final concentration of the salt of 60 mM. The samples were dried by using a speed-vac centrifuge. Each sample was dissolved in 100 μl of 10% Pluronic P85 solution in water. The samples were intensively agitated during two hours at room temperature using a rotator. After that the samples were centrifuged at 10,000 g for 10 min. The supernatants were separated and then diluted with 10% Pluronic P85 solution in water to fit the range of calibration curve. The aliquots (50 μl each) were transferred to 96-well plate and analyzed. The optical densities were determined at λ400 nm using a microplate reader. Fe(III)BBNH concentrations in the samples were then determined by using the calibration shown in Example 4A. Each concentration of Fe(III)BBNH was analyzed in triplicates. Each concentration of Fe306 was measured in triplicates.

HIV-1 RT = HIV-1 RT (Human immunodeficiency virus type 1 BH10, UniProt P03366); assay: In vitro inhibition of HIV-1 RT enzymatic activities (RDDP, RNase H, DDDP); format: biochemical
[3] = target: T1, HIV-1 reverse transcriptase (p51/p66 RT), DDDP activity (Human immunodeficiency virus type 1 group M subtype B, UniProt P03366); assay: Inhibition of DNA dependent DNA polymerase activity of RT (RT DDDP); format: biochemical
T1 construct: 10 ng of p51/p66 heterodimeric RT per assay were used
Experimental: (§1) BBNH and Fe(III)-BBNH complex at various concentrations were examined for the ability to inhibit RNA dependent and DNA dependent DNA polymerase activities as well as RNAse H activity of HIV-1 reverse transcriptase (RT RDDP, RT DDDP, and RT RNAse H, respectively). To analyze RT RDDP and RT DDDP the following reaction mixture (100 μl total volume) was used: 50 mM Tris-HCl (pH 7.8), 60 mM KCl, 10 mM MgCl2, 10 ng of p51/p66 RT, 0.1-0.5 units of template/primer, and 0.5-25 μM [^3 H]dNTP. Aliquots of the test compounds dissolved in DMSO were added to the reaction mixtures, incubated for 10-20 min. at 37° C. and than quenched with 500 μl of cold 20 mM sodium pyrophosphate in 10% dichloroacetic acid. After 10 min. on ice, the samples were filtered on Whatman 934-AH glass fiber filters and washed with 10% dichloroacetic acid and ethanol, and the radioactivity was determined by liquid scintillation analysis. To analyze RT RNAse H the following reaction mixture (50 μl total volume) was used: 5OmM Tris-HCl (pH 8.0), 60 mM KCl, 8 mM MgCl2, and variable amounts of ([^3 H]rG)-poly(dC). Generally, 10 ng of p51/p66 heterodimeric RT per assay were used. Aliquots of the test compounds dissolved in DMSO were added to the reaction mixtures, incubated for 20 min. at 37° C. and than quenched by placing the tubes on ice followed by the addition of 100 μl of cold 7% perchloric acid. After 10 min. on ice, the samples were centrifuged at 12,000 g for 15 min. 100 μl of the supernatants were carefully removed, and the radioactivity was determined by liquid scintillation analysis.

[4] = tested on: HIV-1 infection of MT2 cells; assay: Inhibition of HIV-1 infection of uninfected MT2 cells; format: cell-based; conditions: compound in DMSO, 30 min before HIV
Experimental: BBNH and Fe(III)-BBNH complex at various concentrations were examined for the ability to inhibit HIV-1 infection of uninfected MT2 cells. Aliquots of a solution of the compounds in dimethyl sulfoxide were added to uninfected MT2 cells (2×10^5 cells/ml) in RPMI medium containing 10% fetal bovine serum to provide defined final concentrations of test compound. The cells and test compounds were incubated for 30 minutes at 37° C., then inoculated with a suspension of HIV virions. The cells, test compounds and HIV were incubated for 18 h at 37° C., then the cells were collected by centrifugation, washed, and resuspended in RPMI medium containing 10% fetal bovine serum and containing the same concentration of test compound as initially employed. The cells were then cultured at 37° C. (with culture medium changes as required). HIV infection was assessed by microscopic examination of HIV-induced cytopathicity (syncytium) and/or by analysis of HIV p24 antigen levels in the culture supernatants.

[5] = target: T2, HIV-1 reverse transcriptase (p51/p66 RT), RDDP activity (Human immunodeficiency virus type 1 group M subtype B, UniProt P03366); assay: Inhibition of RNA dependent DNA polymerase activity of RT (RT RDDP); format: biochemical
T2 construct: 10 ng of p51/p66 heterodimeric RT per assay were used
Experimental: as §1

MT2 cells = assay: Cytotoxic activity against uninfected MT2 cells (XTT assay); format: cell-based, human; conditions: 4 days at 37° C., in DMSO
Experimental: BBNH and Fe(III)-BBNH complex at various concentrations were examined for cytotoxic activity against uninfected MT2 cells. Aliquots of a solution of the compounds in dimethyl sulfoxide were added to the MT2 cells (2×10^5 cells/ml) in RPMI medium containing 10% fetal bovine serum to provide defined final concentrations of test compound. The cells and test compounds were cultured for 4 days at 37° C., in the presence of 5% CO2 and then cytotoxic effect of the compounds was analyzed by using the standard XTT assay. The CC50 calculated from the results were 10±0.5 μM for BBNH and more than 1000 μM for Fe(III)-BBNH.

[6] = tested on: HIV-1 replication in cells; assay: Inhibition of HIV-1 replication in infected cells (general statement); format: cell-based

In the case of CC(C)(C)c1ccc(C(=O)NN=Cc2c(O)ccc3ccccc23)cc1.C[O-].[Cl-].[Cl-].[Fe+3] [Fe(III)-BBNH], the “solubility in a water medium” value [1] is reported as “practically insoluble in a water medium”, the Solubility ([2]; 1% P85, 1 mg/ml added, 120 min) is reported as 1120 µg/mL and the Solubility ([2]; 1% P85, 2 mg/ml added) is reported as 2120 µg/mL. The Solubility ([2]; 1% P85, 5 mg/ml added) was 1400 µg/mL, the Solubility ([2]; 1% P85, 10 mg/ml added, 120 min) was 1390 µg/mL and the Solubility ([2]; 1% P85, 20 mg/ml added, 120 min) was 730 µg/mL. The Solubility ([2]; 1% P85, 30 mg/ml added, 120 min) was 10 µg/mL, the Solubility ([2]; 1% P85, 40 mg/ml added, 120 min) was 30 µg/mL and the Solubility ([2]; 2% P85, 1 mg/ml added, 120 min) was 1130 µg/mL. It also gave a Solubility ([2]; 2% P85, 2 mg/ml added) of 2160 µg/mL, a Solubility ([2]; 2% P85, 5 mg/ml added) of 5020 µg/mL and a Solubility ([2]; 2% P85, 10 mg/ml added, 120 min) of 3100 µg/mL. It also gave a Solubility ([2]; 2% P85, 20 mg/ml added, 120 min) of 2710 µg/mL, a Solubility ([2]; 2% P85, 30 mg/ml added, 120 min) of 2390 µg/mL and a Solubility ([2]; 2% P85, 40 mg/ml added, 120 min) of 420 µg/mL. It also gave a Solubility ([2]; 3% P85, 1 mg/ml added, 120 min) of 1040 µg/mL, a Solubility ([2]; 3% P85, 2 mg/ml added) of 2240 µg/mL and a Solubility ([2]; 3% P85, 5 mg/ml added) of 5060 µg/mL. The Solubility ([2]; 3% P85, 10 mg/ml added, 120 min) was 7420 µg/mL, the Solubility ([2]; 3% P85, 20 mg/ml added, 120 min) was 5150 µg/mL and the Solubility ([2]; 3% P85, 30 mg/ml added, 120 min) was 5140 µg/mL. For the same compound, the Solubility ([2]; 3% P85, 40 mg/ml added, 120 min) was 2960 µg/mL, the Solubility ([2]; 5% P85, 1 mg/ml added, 120 min) was 1090 µg/mL and the Solubility ([2]; 5% P85, 2 mg/ml added) was 2080 µg/mL. The Solubility ([2]; 5% P85, 5 mg/ml added) was 5090 µg/mL, the Solubility ([2]; 5% P85, 10 mg/ml added, 120 min) was 10510 µg/mL and the Solubility ([2]; 5% P85, 20 mg/ml added, 120 min) was 10360 µg/mL. It also gave a Solubility ([2]; 5% P85, 30 mg/ml added, 120 min) of 12250 µg/mL, a Solubility ([2]; 5% P85, 40 mg/ml added, 120 min) of 10480 µg/mL and a Solubility ([2]; 10% P85, 1 mg/ml added, 120 min) of 1080 µg/mL. The Solubility ([2]; 10% P85, 2 mg/ml added) was 2060 µg/mL, the Solubility ([2]; 10% P85, 5 mg/ml added) was 5160 µg/mL and the Solubility ([2]; 10% P85, 10 mg/ml added, 120 min) was 10710 µg/mL. For the same compound, the Solubility ([2]; 10% P85, 20 mg/ml added, 120 min) was 19060 µg/mL, the Solubility ([2]; 10% P85, 30 mg/ml added, 120 min) was 22870 µg/mL and the Solubility ([2]; 10% P85, 40 mg/ml added, 120 min) was 26240 µg/mL. For the same compound, the “inhibitory activity against RT in vitro compared to the parent uncomplexed BBNH” value (HIV-1 RT) was “improved inhibitory activity compared to the parent uncomplexed BBNH”, the IC50 [3] was 0.9 ± 0.3 µM and the “Ratio BBNH/Fe(III)-BBNH (IC50), RT DDDP” value [3] was 13.5. For the same compound, the IC50 [4] was over 50 µM, the IC50 [5] was 0.4 ± 0.08 µM and the “Ratio BBNH/Fe(III)-BBNH (IC50), RT RDDP” value [5] was 4.8. For the same compound, the CC50 (MT2 cells) was over 1000 µM, the “antiviral activity against HIV-1 replication in cells” value [6] was “no antiviral activity against HIV-1 replication in cells” and the “inhibition of HIV-1 replication in cells, water-organic formulations” value ([6]; water-organic formulations) was “very low activity”.

From US6218438A, “Copolymer compositions for treating viral infections” (Supratek Pharma, Inc., priority 1999, dated 2001)
